In brackets after ≈: the same amount, converted by molar mass.
Assays:
[1] = Stability of 9 compounds in mouse plasma under storage conditions; format: in vitro ADME; conditions: n = 6; for Stability 3-Freeze-Thaw Cycles RE: 3 times repeated freeze-thaw at −80 °C; for Stability Short-Term RE: 12 h at 4 °C; for Stability Long-Term RE: −20 °C for 20 days
[2] = test system: RSV; conditions: cited from earlier work
[3] = HPLC-MS/MS quantification of 9 compounds in plasma of RSV-infected mice after Scutellaria baicalensis Georgi administration; format: in vivo, BALB/c mice; design: drug-containing plasma content: unit not given here
Experimental: The study employed a Vanquish high-performance liquid chromatograph for chromatographic separation, with a HALO C18 column (2.1 × 100 mm, 2.7 μm) as the chromatographic column.
Mass spectrometry was performed using a quadrupole-electrostatic field orbitrap desktop mass spectrometer equipped with an electrospray ion source (ESI). The ESI parameters were set as follows: the pyrolysis voltage was 3.0 kV, the auxiliary gas flow rate was 10 mL/min, the ion transport tube temperature was 350 °C, the auxiliary gas temperature was 350 °C, and the sheath gas flow rate was 45 L/min. Quantitative analysis was performed using the selective ion detection (SIM) mode (Table S1).
Male BALB/c mice, aged 2 weeks and weighing 10–12 g, were chosen for this study. They were acclimatized for 2 days and then randomly assigned to one of five groups: blank (C), model (M), positive control ribavirin (Y1), positive control lianhua qingwen granules (Y2), and Scutellaria baicalensis Georgi administration (H1-H12). Each group consisted of six mice, and their weights were recorded. The mice were pre-administered for 2 days, and on the third day, RSV virus (TCID50 = 10^−6) was inoculated through intranasal infection at a volume of 35 μL per mouse. The blank group was inoculated with normal saline of the same volume. After the inoculation of the RSV virus, the blank and model groups were given distilled water by gavage, while the drug-administered groups were given an aqueous extract of Scutellaria baicalensis Georgi (10 µL/g) once a day for 3 days. The mice were observed daily for their mental status, hair color, diet, and body weight. […] It was then centrifuged at 3000 r/min for 10 min, and the upper layer of plasma was stored at −80℃. Lung tissues were weighed, the lung index was calculated, and the lung tissues were stored in the refrigerator at −80 °C for freezing.
The plasma sample (200 μL) was processed in a 5 mL tube. Subsequently, 10 μL of 5% formic acid and 20 μL of 2 mol/L hydrochloric acid were added, followed by vortexing for 1 min with 10 μL of internal standard solution (100 ng/mL tinidazole). The extraction was completed by adding 2000 μL of acetonitrile solvent and vortexing for 2 min. The mixture was then centrifuged at 12,000 r/min at 4 °C for 10 min, and the supernatant solution was collected in a new centrifuge tube. The supernatant solution was dried by nitrogen at room temperature before being redissolved in 50 μL of 70% acetonitrile solution containing 0.1% formic acid. After vortexing for 1 min, the solution was centrifuged at 12,000 r/min at 4 °C for 10 min, and the resulting supernatant was injected for analysis. The injection volume was 3 μL.
The drug-containing plasma at different time points was subjected to sample treatment. The HPLC-MS/MS analysis method was used to quantitatively detect the 9 compounds in the ion detection (SIM) mode. According to the relative peak area value = index peak area/internal standard peak area, the corresponding concentration value was calculated by substituting the standard curve of each component.

[4] = test system: respiratory syncytial virus (RSV); assay: Lung index and lung index repair rate in RSV-infected mice; format: in vivo; conditions: positive control groups
Experimental: (§1) Male BALB/c mice, aged 2 weeks and weighing 10–12 g, were chosen for this study. They were acclimatized for 2 days and then randomly assigned to one of five groups: blank (C), model (M), positive control ribavirin (Y1), positive control lianhua qingwen granules (Y2), and Scutellaria baicalensis Georgi administration (H1-H12). Each group consisted of six mice, and their weights were recorded. The mice were pre-administered for 2 days, and on the third day, RSV virus (TCID50 = 10^−6) was inoculated through intranasal infection at a volume of 35 μL per mouse. The blank group was inoculated with normal saline of the same volume. After the inoculation of the RSV virus, the blank and model groups were given distilled water by gavage, while the drug-administered groups were given an aqueous extract of Scutellaria baicalensis Georgi (10 µL/g) once a day for 3 days. The mice were observed daily for their mental status, hair color, diet, and body weight. […] Lung tissues were weighed, the lung index was calculated, and the lung tissues were stored in the refrigerator at −80 °C for freezing.
Based on the recorded body weight and lung tissue weight of mice in the blank, model, positive control, and administration groups, the lung index and lung index repair rate were calculated for each group. […]

[5] = test system: respiratory syncytial virus (RSV); assay: Lung tissue viral load (RSV-F real-time PCR) and inhibition rate in RSV-infected mice; format: in vivo; conditions: positive control groups
Experimental: as §1, with “volume.” for “volume. After the inoculation of the RSV virus, the blank and model groups were given distilled water by gavage, while the drug-administered groups were given an aqueous extract of Scutellaria baicalensis Georgi (10 µL/g) once a day for 3 days. The mice were observed daily for their mental status, hair color, diet, and body weight.”
The F protein is a RSV-specific protein, so it can be used as a PCR gene indicator to indicate the viral load of lung tissue. […] After quantification, the RNA was reverse transcribed into cDNA, and the SYBR Green Master Mix reagent was used as the reaction system. […] The viral load inhibition rate was calculated using the 2^−ΔΔCt formula, and a graph depicting the change in lung tissue viral load over time was plotted, with time as the abscissa and lung tissue viral load as the ordinate. […]

[6] = high QC (20,000 or 10,000 ng/mL)
[7] = RSV-infected mice after Scutellaria baicalensis Georgi administration, double peak phenomenon
[8] = RSV-infected mice, 0.083 h after last gavage of Scutellaria baicalensis Georgi extract, mean ± SD, n = 6
[9] = RSV-infected mice, 0.167 h after last gavage of Scutellaria baicalensis Georgi extract, mean ± SD, n = 6
[10] = RSV-infected mice, 0.25 h after last gavage of Scutellaria baicalensis Georgi extract, mean ± SD, n = 6
[11] = RSV-infected mice, 0.5 h after last gavage of Scutellaria baicalensis Georgi extract, mean ± SD, n = 6
[12] = RSV-infected mice, 1 h after last gavage of Scutellaria baicalensis Georgi extract, mean ± SD, n = 6
[13] = RSV-infected mice, 2 h after last gavage of Scutellaria baicalensis Georgi extract, mean ± SD, n = 6
[14] = RSV-infected mice, 4 h after last gavage of Scutellaria baicalensis Georgi extract, mean ± SD, n = 6
[15] = RSV-infected mice, 6 h after last gavage of Scutellaria baicalensis Georgi extract, mean ± SD, n = 6
[16] = RSV-infected mice, 8 h after last gavage of Scutellaria baicalensis Georgi extract, mean ± SD, n = 6
[17] = RSV-infected mice, 10 h after last gavage of Scutellaria baicalensis Georgi extract, mean ± SD, n = 6
[18] = RSV-infected mice, 12 h after last gavage of Scutellaria baicalensis Georgi extract, mean ± SD, n = 6
[19] = RSV-infected mice, 24 h after last gavage of Scutellaria baicalensis Georgi extract, mean ± SD, n = 6

Stability 3-Freeze-Thaw Cycles RE [1, 6] [%] | Stability 3-Freeze-Thaw Cycles RE ([1]; low QC (12.5 or 25.6 ng/mL)) [%] | Stability 3-Freeze-Thaw Cycles RE ([1]; medium QC (320 or 160 ng/mL)) [%] | Stability Short-Term RE [1, 6] [%] | Stability Short-Term RE ([1]; low QC (12.5 or 25.6 ng/mL)) [%] | Stability Short-Term RE ([1]; medium QC (320 or 160 ng/mL)) [%] | Stability Long-Term RE [1, 6] [%] | Stability Long-Term RE ([1]; low QC (12.5 or 25.6 ng/mL)) [%] | Stability Long-Term RE ([1]; medium QC (320 or 160 ng/mL)) [%] | time of highest plasma concentration, first peak [3, 7] [h] | time of highest plasma concentration, second peak [3, 7] [h] | drug-containing plasma content [3, 8] | drug-containing plasma content [3, 9] | drug-containing plasma content [3, 10] | drug-containing plasma content [3, 11] | drug-containing plasma content [3, 12] | drug-containing plasma content [3, 13] | drug-containing plasma content [3, 14] | drug-containing plasma content [3, 15] | drug-containing plasma content [3, 16] | Compound | further results
12.89 | −11.16 | 9.82 | 8.46 | −9.77 | 11.75 | 8.46 | −13.33 | 11.75 | 0.167 | 6 | 344.59± 1.64 | 981.37± 13.72 | 471.39± 1.78 | 222.21± 6.76 | 181.04± 4.74 | 10.35± 1.79 | 71.39± 17.8 | 2664.55± 129.18 | 97.31± 2.71 | COc1c(O)cc(O)c2c(=O)cc(-c3ccccc3)oc12 [Wogonin] | IC50 against RSV [2]: 7.4 µg/mL (≈ 26 µM); drug-containing plasma content [3, 17]: 14.65± 8.42; drug-containing plasma content [3, 18]: 3.41± 5.28; drug-containing plasma content [3, 19]: 0
 |  |  |  |  |  |  |  |  |  |  |  |  |  |  |  |  |  |  |  | NC(=O)c1ncn([C@@H]2O[C@H](CO)[C@@H](O)[C@H]2O)n1 [Y1, ribavirin] | Repair Rate (lung index) [4]: 58.33%; Lung Index ([4]; mean ± SD, n = 6): 0.85 ± 0.08 %; Inhibitory Rates (viral load) [5]: 61.26%; Viral Load ([5]; mean ± SD, n = 6): 2.27 ± 0.37 ×10^5 Copies/Ml
8.37 | −2.43 | −0.72 | 8.60 | −3.20 | −2.08 | 9.80 | −3.16 | −1.48 |  |  |  |  |  |  |  |  |  |  |  | O=C(O)[C@H]1O[C@@H](Oc2cc(O)c3c(=O)cc(-c4ccc(O)cc4)oc3c2)[C@H](O)[C@@H](O)[C@@H]1O [Apigenin-7-glucuronide] | time of highest plasma concentration, first peak ([3]; male, BALB/c, mouse, in vivo): 0.167 h; time of highest plasma concentration, second peak ([3]; male, BALB/c, mouse, in vivo): 6 h; drug-containing plasma content ([3]; male, BALB/c, mouse, in vivo, 0.083 h): 4725.60± 214.70; drug-containing plasma content ([3]; male, BALB/c, mouse, in vivo, 0.167 h): 6986.86± 153.57; drug-containing plasma content ([3]; male, BALB/c, mouse, in vivo, 0.25 h): 4610.60± 192.08; drug-containing plasma content ([3]; male, BALB/c, mouse, in vivo, 0.5 h): 4344.98± 173.73; drug-containing plasma content ([3]; male, BALB/c, mouse, in vivo, 1 h): 1590.11± 125.69; drug-containing plasma content ([3]; male, BALB/c, mouse, in vivo, 2 h): 2934.42± 221.23; drug-containing plasma content ([3]; male, BALB/c, mouse, in vivo, 4 h): 1037.07± 106.48; drug-containing plasma content ([3]; male, BALB/c, mouse, in vivo, 6 h): 9344.98± 327.73; drug-containing plasma content ([3]; male, BALB/c, mouse, in vivo, 8 h): 2958.20± 207.61; drug-containing plasma content ([3]; male, BALB/c, mouse, in vivo, 10 h): 896.04± 55.63; drug-containing plasma content ([3]; male, BALB/c, mouse, in vivo, 12 h): 47.32± 11.82; drug-containing plasma content ([3]; male, BALB/c, mouse, in vivo, 24 h): 23.55± 2.60
−0.56 | 6.23 | 3.08 | −0.23 | 7.34 | 1.89 | 0.55 | 7.73 | 2.21 | 0.167 | 6 | 462.93± 10.74 | 603.78± 13.98 | 143.83± 6.73 | 315.26± 12.78 | 138.74± 3.62 | 315.26± 12.78 | 412.32± 18.42 | 1008.71± 54.19 | 286.84± 8.27 | COc1c(OC2OC(C(=O)O)C(O)C(O)C2O)cc2oc(-c3ccccc3)cc(=O)c2c1O [Oroxylin A 7-O-beta-D-glucuronide] | drug-containing plasma content [3, 17]: 160.51± 5.17; drug-containing plasma content [3, 18]: 29.40± 0.71; drug-containing plasma content [3, 19]: 0
